Source: publication PMC9696605 (Viruses, 2022)

Assays:
[1] = test system: KIR2DL2 positive NK cells vs 721.221-ICP47-C1 cells; experiment: CAM cytotoxicity assay, 721.221-ICP47-C1 targets; type: cell-based, human; conditions: NK cells from MS patients, 4 h, 26 °C, Figure 5c, MBP, pU24-6B, U24-7 p < 0.001, pU24-6A p: NS (Fisher exact test)
[2] = test system: NK cells from MS patients co-cultured with 721.221-ICP47-C1 cells; experiment: CD107a degranulation assay; type: cell-based, human; conditions: 721.221-ICP47-C1 cells incubated with pU24-6A, Figure 5e; p < 0.01 (Fisher exact test)
[3] = target: T1, hNedd4L-WW3* (Homo sapiens, UniProt Q96PU5); conditions: binding to hNedd4L-WW3* domain, quoted from earlier work; ref 30 (Sang et al.); cited from earlier work
T1 construct: GST (N, cleaved yes); made in house; host or cells: E. coli BL21(DE3), pGEX-4T2
T1 sequence (Q96PU5 with tags, fused parts or gaps): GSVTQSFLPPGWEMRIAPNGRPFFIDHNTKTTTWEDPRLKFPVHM

[4] = target: T1, hNedd4L-WW3*; conditions: NMR titrations; cited from earlier work
[5] = target: Fyn-SH3 (Homo sapiens, UniProt P06241); conditions: phosphorylated MBP; cited from earlier work
Sequence of Fyn-SH3 (P06241 with tags, fused parts or gaps): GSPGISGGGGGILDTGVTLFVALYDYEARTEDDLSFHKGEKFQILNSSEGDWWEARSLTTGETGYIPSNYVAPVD

[6] = test system: actin; conditions: cited from earlier work
[7] = cited from earlier work

Molecule | Killing of 721.221-ICP47-C1 cells by KIR2DL2 positive NK cells [1] | CD107a expression, KIR2DL2 positive vs negative NK cells [2] | ΔG° [3] | ΔH° [3] [kcal/mol] | ΔS° [3] [J. mol^−1.K^−1] | hNedd4L-WW3* residue perturbed [4] | Effect of MBP phosphorylation on interaction with Fyn-SH3 [5] | Effect of MBP phosphorylation on actin polymerization and bundling [6] | Effect of MBP phosphorylation on lipid interaction [7]
CSCC[C@H](N)C(=O)N[C@@H](CC(=O)O)C(=O)N1CCC[C@H]1C(=O)N1CCC[C@H]1C(=O)N[C@@H](CCCNC(=N)N)C(=O)N[C@H](C(=O)N1CCC[C@H]1C(=O)N1CCC[C@H]1C(=O)N1CCC[C@H]1C(=O)N[C@@H](CO)C(=O)N[C@@H](Cc1ccc(O)cc1)C(=O)N[C@@H](CO)C(=O)N[C@@H](CCC(=O)O)C(=O)N[C@H](C(=O)N[C@@H](CC(C)C)C(=O)O)C(C)C)[C@@H](C)OP(=O)(O)O [pU24-6A] | maintained KIR2DL2 positive NK cells unresponsive towards 721.221-ICP47-C1 cells | lower in KIR2DL2 positive NK cells in comparison with KIR2DL2 negative NK cells | (−3.49 ± 0.05)×10^1 kJ.mol^−1 | -14 ± 0.096 | -79.8 ± 0.9 | R492 was found to be perturbed |  |  | 
MBP: myelin basic protein, a key component of the myelin sheath (IVTPRTPPPSQGKGR) | induced 721.221-ICP47-C1 cell killing |  |  |  |  |  | reduced interaction with Fyn-SH3 | decrease the ability of MBP to polymerize actin and to bundle actin filaments | decreases the interaction between MBP and lipids
